Assay results taken from patent US20220304957A1, “ANTI-CANCER COMPOSITIONS AND METHODS OF USE” (Board of Supervisors of Louisiana State University and …, priority 2019, published 2022).
Where two headings read alike, the source gives them in different places.

Experiments:
[1] = mouse, in vivo; cited from earlier work
[2] = system: GBM12 patient-derived human glioblastoma cells; assay: Cell death, trypan blue, GBM12; conditions: 5-50 μM, 96 h
Experimental: (§1) The percentage of cell death was calculated at 96-hour time point for all experimental conditions.

[3] = system: LN-229 human glioblastoma cells; conditions: for % cell death: 72-/96-hour time points
[4] = system: U-87MG human glioblastoma cell line; assay: Cell death, trypan blue, U-87MG; conditions: 5-50 μM, 96 h
Experimental: as §1

[5] = system: PPAR responsive elements (PPRE); assay: PPAR luciferase assay (PPRE reporter) in HepG2 cells; format: cell-based; conditions: 25 μM, 24 hrs
Experimental: Aliquots of 50 μM PP1 and FF in DMSO were added to 500 μl to heparinized human blood to a final concentration of 50 μM. Following incubation at 37° C. for the indicated time points, the samples were frozen at −80° C., and later prepared for HPLC-based detection of the compounds. Please note that FF is converted to FA in the presence of human blood. […] Data represent average values with standard deviation (n=3). panel B: Water solubility. FF and PP1, were added to water to a final concentration of 50 mM and sonicated in an ultrasonic bath (Branson 1510 Digital Heated Ultrasonic bath) for one hour at room temperature. The samples were then centrifuged for 10 minutes at 16000×g, and the supernatant filtered through 0.45 μm syringe filter. Water solubilized PP1 and FF were subsequently processed for HPLC analysis (see Methods). Data represent average values with standard deviation (n=3). panel C: Effects of PP compounds on PPAR responsive elements (PPRE). The PPAR transcriptional activity was determined in HepG2 cells by the JsTkpGL3 reporter plasmid, which contains a firefly luciferase gene driven by the PPRE, which consists of three copies of the J site from the apo-AII gene promoter. To normalize for efficiency of transfection the cells were additionally transfected with the pSV40-GLuc (New England Biolabs, Ipswich, Mass.) control plasmid. […] The luciferase activity was detected with Dual-Luciferase reporter assay system (Promega, Madison, Wis.), and the resulting luminescence measured with Synergy 2 microplate reader (BioTek, Winooski, Vt.). Data represent average values with standard deviation (n=6).
PPAR Luciferase Assay—The PPAR transcriptional activity was determined by utilizing the JsTkpGL3 reporter plasmid, which contains a firefly luciferase gene driven by the PPAR responsive element (PPRE), which consists of three copies of the J site from the apo-AII gene promoter. Together with JsTkpGL3 plasmid HepG2 cells were transfected with pSV40-GLuc (New England Biolabs, Ipswich, Mass.) control plasmid expressing Gaussia luciferase under the control of the constitutive SV40 early promoter to normalize for efficiency of transfection. […] The luciferase activity was detected with Dual-Luciferase reporter assay system (Promega, Madison, Wis.), and the resulting luminescence measured with Synergy 2 microplate reader (BioTek, Winooski, Vt.).

[6] = system: mitochondrial respiration and glycolysis in LN-229 human glioblastoma cells; assay: Metabolic parameters, Extracellular Flux Analyzer (OCR/ECAR); format: cell-based; conditions: 25 μM, LN229
Experimental: Metabolic responses of LN-229 human glioblastoma cells were evaluated with Extracellular Flux Analyzer XF24 (Seahorse Biosciences, North Billerica, Mass.). Prior each assay the cells were plated at 4×10^4 cells/well in 24-well plates in growth supporting media. At the time of measurement, growth media were replaced with serum-free XF medium (Seahorse) in cartridges equipped with oxygen-sensitive and pH-sensitive fluorescent probes. The oxygen consumption rate (OCR; indicative of mitochondrial respiration) and acidification rate (ECAR; indicative of glycolysis) were evaluated after injecting the following metabolic toxins: oligomycin, FCCP; rotenone; and antimycin A. Immediate metabolic effects were determined by comparing OCR and ECAR values in cells pre-incubated with DMSO (vehicle), or with PP1 and FF, all used at 25 μM. A: Representative experiment in which real OCR (pmol/min) and ECAR (mpH/min) values are shown. Other relevant metabolic parameters calculated from this experiment include ATP production, Spare Respiratory Capacity, basal OCR levels and proton leak. B: Average OCR and ECAR data (% change over basal OCR and ECAR values) from three independent experiments repeated 5 times (n=15).
Evaluation of metabolic parameters—Metabolic responses of human glioblastoma cells were evaluated with Extracellular Flux Analyzer XFe24 (Agilent Technologies). […]

CN(CCO)C(=O)C(C)(C)Oc1ccc(C(=O)c2ccc(Cl)cc2)cc1 [PP1, 2-[4-(4-chlorobenzoyl)phenoxy]-N-(2-hydroxyethyl)-N,2-dimethylpropanamide]
brain penetration, concentration [1]: 5 µM | estimated log BB (from experiment) [1]: zero | in vitro cytotoxicity [2]: high in vitro cytotoxicity | % cell death ([3]; 5 μM): 74+/−3% | % cell death ([3]; 10 μM): 92+/−2% | cell death ([3]; 25 and 50 μM, 72- and 96-hour time points): extensive cell death | concentration triggering extensive glioblastoma cell death, fold lower than FF ([3]; in vitro): ~5 fold | in vitro cytotoxicity [4]: high in vitro cytotoxicity | effect on PPAR responsive elements (PPRE) [5]: attenuate | extracellular acidification rate (ECAR) [6]: corresponding increases in ECAR | oxygen consumption rate (OCR) [6]: dramatic decrease of OCR values
